Biological target: Gli2 (Homo sapiens, UniProt P10070)
Assay: Overexpression of Gli2 in Gli1 null cells, firefly luciferase reporter
Assay type: cell-based, mouse
Set-up: expressed in transfected cells; host or cells: Gli1-/- immortalized mouse embryonic fibroblasts
Method: Gli1 null cells [see Lipinski et al. BMC Cell Biol. 2008; 9:49], an immortalized mouse embryonic fibroblast cell line lacking the Gli1 gene, were cultured in DMEM (Invitrogen, 11965) containing 10% (v/v) calf serum (ATCC, 30-2030), 1 mM sodium pyruvate (Invitrogen, 11360), 1× PenStrep (Gibco, 15140) and 1×MEM non-essential amino acids solution (11140, Invitrogen).
All test compounds were dissolved in DMSO at 50 mM, serially diluted by 1:3, 1:4 or 1:5 in a 96-well translucent microplate (Greiner bio-one, 650201) and stored at −20° C. These serial dilutions were added to assay media freshly with final DMSO concentration of 0.2% (v/v).
Overexpression of Gli2 in Gli1 null cells provides a measure of Gli2-induced pathway activity. pcDNA-derived Gli2 expression vectors (200 ng/well) and a 1:19 mixture (total 200 ng/well) of constitutive Renilla luciferase reporter (pRLTK, Promega) and firefly luciferase reporter (8XGliBS-FL) were mixed with FuGene HD transfection reagent (1.2 μL/well, Promega, E2311) in Opti-MEM Reduced-Serum Medium with GLutaMAX (Invitrogene, 51985) at a total volume of 25 μL/well. […] The cells were lysed with passive lysis buffer (200 μL/well), and 10 μL of the obtained lysate were analyzed for firefly and Renilla luciferase activities using Dual-Luciferase Reporter Assay System (Promega, E1960) (50 μL/well of each reagent) on a microplate luminometer (Veritas). […]

Chain of Gli2 (P10070 whole entry, species assumed): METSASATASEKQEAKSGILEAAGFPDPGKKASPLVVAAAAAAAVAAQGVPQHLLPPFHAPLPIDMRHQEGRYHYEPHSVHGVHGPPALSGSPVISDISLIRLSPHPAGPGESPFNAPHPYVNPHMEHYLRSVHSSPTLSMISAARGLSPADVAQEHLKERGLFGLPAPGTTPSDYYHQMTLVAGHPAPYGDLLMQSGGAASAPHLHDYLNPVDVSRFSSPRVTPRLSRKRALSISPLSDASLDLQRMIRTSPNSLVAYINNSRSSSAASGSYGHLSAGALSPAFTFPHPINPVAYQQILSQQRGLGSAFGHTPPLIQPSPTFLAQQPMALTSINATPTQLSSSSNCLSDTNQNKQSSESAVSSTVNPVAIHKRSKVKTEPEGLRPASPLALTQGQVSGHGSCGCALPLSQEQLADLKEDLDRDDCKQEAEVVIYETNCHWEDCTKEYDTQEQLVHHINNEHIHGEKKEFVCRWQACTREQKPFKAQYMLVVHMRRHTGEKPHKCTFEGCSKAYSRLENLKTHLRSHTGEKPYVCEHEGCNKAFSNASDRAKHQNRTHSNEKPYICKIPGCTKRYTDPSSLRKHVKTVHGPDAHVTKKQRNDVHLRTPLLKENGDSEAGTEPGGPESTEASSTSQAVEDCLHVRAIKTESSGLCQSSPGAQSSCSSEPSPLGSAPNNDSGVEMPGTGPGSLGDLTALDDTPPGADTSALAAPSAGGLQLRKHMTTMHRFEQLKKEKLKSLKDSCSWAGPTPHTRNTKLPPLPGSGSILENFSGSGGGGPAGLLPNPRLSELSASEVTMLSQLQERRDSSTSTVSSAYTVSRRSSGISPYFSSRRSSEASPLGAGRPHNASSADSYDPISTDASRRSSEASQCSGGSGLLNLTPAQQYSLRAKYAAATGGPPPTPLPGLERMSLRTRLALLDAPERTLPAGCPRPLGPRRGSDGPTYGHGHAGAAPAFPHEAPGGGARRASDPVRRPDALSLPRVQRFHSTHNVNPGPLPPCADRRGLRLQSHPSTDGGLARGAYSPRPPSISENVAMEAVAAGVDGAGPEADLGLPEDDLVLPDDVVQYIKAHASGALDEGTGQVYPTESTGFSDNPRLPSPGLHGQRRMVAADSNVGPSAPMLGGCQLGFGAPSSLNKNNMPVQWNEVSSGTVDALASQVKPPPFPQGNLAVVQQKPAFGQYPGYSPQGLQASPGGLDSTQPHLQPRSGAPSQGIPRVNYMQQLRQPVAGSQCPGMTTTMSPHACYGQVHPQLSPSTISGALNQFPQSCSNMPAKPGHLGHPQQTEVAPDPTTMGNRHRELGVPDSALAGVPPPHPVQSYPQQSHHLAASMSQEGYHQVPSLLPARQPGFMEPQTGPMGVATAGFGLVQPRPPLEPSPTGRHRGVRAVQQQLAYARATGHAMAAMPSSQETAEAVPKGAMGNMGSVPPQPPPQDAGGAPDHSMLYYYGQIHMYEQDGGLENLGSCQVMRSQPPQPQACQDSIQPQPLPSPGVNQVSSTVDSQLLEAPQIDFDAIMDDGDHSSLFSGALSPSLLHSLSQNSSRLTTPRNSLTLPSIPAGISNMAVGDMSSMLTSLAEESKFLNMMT

## CCOc1ccc(-[n+]2cc(-c3ccc(Br)cc3)n3c2CCCCC3)cc1 [Compound A-1]
  Gli2-induced Hh reporter expression in cells lacking Gli1: not able to inhibit
Gli2-overexpressing Gli1-/-
  IC50, firefly luciferase: No inhibition

Reference: US9611276B2, “Imidazo bicyclic iminium compounds as antitumor agents” (THE BOARD OF TRUSTEES OF THE LELAND STANFORD JUNIOR …, priority 2012, dated 2017)
